Reference: paper PMC12670405, “Second-Generation AURKA-Targeting PROTACs: Structural Optimization toward in Vivo Degradation in Neuroblastoma” (Journal of Medicinal Chemistry, 2025)

Tests used:
Assay in all cases: KINOMEscan scanMAX
Format in all cases: binding
BRK = biological target: T1, BRK (Homo sapiens, UniProt Q13882); conditions: read-out: Percent Control
T1 construct: purchased Eurofins Discovery (DiscoverX KINOMEscan scanMAX)
Experimental: (§1) The kinome-wide binding assay was performed by Eurofins Discovery using the scanMAX screening platform. More information can be found on the Eurofins Discovery Web site.

SNARK = biological target: T2, SNARK (Homo sapiens, UniProt Q9H093); conditions: read-out: Percent Control
T2 construct: purchased Eurofins Discovery (DiscoverX KINOMEscan scanMAX)
Experimental: as §1

AAK1 = biological target: T3, AAK1 (Homo sapiens, UniProt Q2M2I8); conditions: read-out: Percent Control
T3 construct: purchased Eurofins Discovery (DiscoverX KINOMEscan scanMAX)
Experimental: as §1

FGR = biological target: T4, FGR (Homo sapiens, UniProt P09769); conditions: read-out: Percent Control
T4 construct: purchased Eurofins Discovery (DiscoverX KINOMEscan scanMAX)
Experimental: as §1

KIT(L576P) = biological target: T5, KIT(L576P) (Homo sapiens, UniProt P10721, L576P); conditions: read-out: Percent Control
T5 construct: purchased Eurofins Discovery (DiscoverX KINOMEscan scanMAX)
T5 sequence (P10721 26-976 L576P): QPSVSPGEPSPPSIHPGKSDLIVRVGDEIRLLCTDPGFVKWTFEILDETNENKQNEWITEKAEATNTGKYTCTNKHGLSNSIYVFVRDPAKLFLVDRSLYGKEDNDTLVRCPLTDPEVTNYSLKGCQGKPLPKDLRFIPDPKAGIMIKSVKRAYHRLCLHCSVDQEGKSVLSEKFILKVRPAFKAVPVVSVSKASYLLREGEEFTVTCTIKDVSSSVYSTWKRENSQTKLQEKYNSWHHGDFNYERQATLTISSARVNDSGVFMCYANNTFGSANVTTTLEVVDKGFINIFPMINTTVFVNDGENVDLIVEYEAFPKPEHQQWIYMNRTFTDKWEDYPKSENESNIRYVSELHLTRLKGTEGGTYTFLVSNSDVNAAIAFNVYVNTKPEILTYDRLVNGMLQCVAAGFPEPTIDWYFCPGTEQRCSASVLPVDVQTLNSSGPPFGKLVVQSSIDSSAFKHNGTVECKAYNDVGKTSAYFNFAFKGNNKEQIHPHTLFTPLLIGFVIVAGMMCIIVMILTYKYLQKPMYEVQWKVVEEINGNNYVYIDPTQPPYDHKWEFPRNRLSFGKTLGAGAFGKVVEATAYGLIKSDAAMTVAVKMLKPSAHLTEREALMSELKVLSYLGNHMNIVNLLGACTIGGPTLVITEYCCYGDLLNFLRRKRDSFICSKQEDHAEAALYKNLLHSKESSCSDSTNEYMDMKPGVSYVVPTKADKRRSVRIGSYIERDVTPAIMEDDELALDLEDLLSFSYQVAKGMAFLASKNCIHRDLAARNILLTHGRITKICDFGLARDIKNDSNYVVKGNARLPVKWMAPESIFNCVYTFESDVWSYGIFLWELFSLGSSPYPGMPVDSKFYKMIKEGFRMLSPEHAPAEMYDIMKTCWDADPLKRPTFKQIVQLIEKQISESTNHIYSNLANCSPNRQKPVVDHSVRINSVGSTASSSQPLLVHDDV
Experimental: as §1

NIK = biological target: T6, NIK (Homo sapiens, UniProt Q99558); conditions: read-out: Percent Control
T6 construct: purchased Eurofins Discovery (DiscoverX KINOMEscan scanMAX)
Experimental: as §1

SRPK1 = biological target: T7, SRPK1 (Homo sapiens, UniProt Q96SB4); conditions: read-out: Percent Control
T7 construct: purchased Eurofins Discovery (DiscoverX KINOMEscan scanMAX)
Experimental: as §1

PIK3CD = biological target: T8, PIK3CD (Homo sapiens, UniProt O00329); conditions: read-out: Percent Control
T8 construct: purchased Eurofins Discovery (DiscoverX KINOMEscan scanMAX)
Experimental: as §1

p38-alpha = biological target: T9, p38-alpha (Homo sapiens, UniProt Q16539); conditions: read-out: Percent Control
T9 construct: purchased Eurofins Discovery (DiscoverX KINOMEscan scanMAX)
T9 sequence (Q16539 whole entry): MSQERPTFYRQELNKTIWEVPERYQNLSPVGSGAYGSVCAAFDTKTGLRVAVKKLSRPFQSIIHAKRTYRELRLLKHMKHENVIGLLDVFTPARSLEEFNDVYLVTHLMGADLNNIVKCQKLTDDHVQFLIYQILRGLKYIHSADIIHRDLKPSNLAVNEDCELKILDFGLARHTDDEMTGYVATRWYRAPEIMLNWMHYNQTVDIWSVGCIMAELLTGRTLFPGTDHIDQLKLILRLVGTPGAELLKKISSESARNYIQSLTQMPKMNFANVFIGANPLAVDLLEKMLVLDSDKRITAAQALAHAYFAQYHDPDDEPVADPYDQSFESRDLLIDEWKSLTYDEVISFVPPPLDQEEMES
Experimental: as §1

[1] = biological target: T10, JAK1(JH1domain-catalytic) (Homo sapiens, UniProt P23458); conditions: read-out: Percent Control
T10 construct: JAK1(JH1domain-catalytic); purchased Eurofins Discovery (DiscoverX KINOMEscan scanMAX)
T10 sequence (P23458 854-1154 limits assumed): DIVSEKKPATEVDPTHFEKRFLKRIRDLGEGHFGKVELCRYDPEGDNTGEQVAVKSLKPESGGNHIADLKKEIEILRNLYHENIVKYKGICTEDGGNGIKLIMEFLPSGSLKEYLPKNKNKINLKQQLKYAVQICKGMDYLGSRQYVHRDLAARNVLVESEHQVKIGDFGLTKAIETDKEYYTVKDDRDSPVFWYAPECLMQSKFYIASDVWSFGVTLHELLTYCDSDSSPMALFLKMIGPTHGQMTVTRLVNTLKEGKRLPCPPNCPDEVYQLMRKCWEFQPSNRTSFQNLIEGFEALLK
Experimental: as §1

ULK2 = biological target: T11, ULK2 (Homo sapiens, UniProt Q8IYT8); conditions: read-out: Percent Control
T11 construct: purchased Eurofins Discovery (DiscoverX KINOMEscan scanMAX)
Experimental: as §1

CLK2 = biological target: T12, CLK2 (Homo sapiens, UniProt P49760); conditions: read-out: Percent Control
T12 construct: purchased Eurofins Discovery (DiscoverX KINOMEscan scanMAX)
Experimental: as §1

LRRK2 = biological target: T13, LRRK2 (Homo sapiens, UniProt Q5S007); conditions: read-out: Percent Control
T13 construct: purchased Eurofins Discovery (DiscoverX KINOMEscan scanMAX)
T13 sequence (Q5S007 whole entry): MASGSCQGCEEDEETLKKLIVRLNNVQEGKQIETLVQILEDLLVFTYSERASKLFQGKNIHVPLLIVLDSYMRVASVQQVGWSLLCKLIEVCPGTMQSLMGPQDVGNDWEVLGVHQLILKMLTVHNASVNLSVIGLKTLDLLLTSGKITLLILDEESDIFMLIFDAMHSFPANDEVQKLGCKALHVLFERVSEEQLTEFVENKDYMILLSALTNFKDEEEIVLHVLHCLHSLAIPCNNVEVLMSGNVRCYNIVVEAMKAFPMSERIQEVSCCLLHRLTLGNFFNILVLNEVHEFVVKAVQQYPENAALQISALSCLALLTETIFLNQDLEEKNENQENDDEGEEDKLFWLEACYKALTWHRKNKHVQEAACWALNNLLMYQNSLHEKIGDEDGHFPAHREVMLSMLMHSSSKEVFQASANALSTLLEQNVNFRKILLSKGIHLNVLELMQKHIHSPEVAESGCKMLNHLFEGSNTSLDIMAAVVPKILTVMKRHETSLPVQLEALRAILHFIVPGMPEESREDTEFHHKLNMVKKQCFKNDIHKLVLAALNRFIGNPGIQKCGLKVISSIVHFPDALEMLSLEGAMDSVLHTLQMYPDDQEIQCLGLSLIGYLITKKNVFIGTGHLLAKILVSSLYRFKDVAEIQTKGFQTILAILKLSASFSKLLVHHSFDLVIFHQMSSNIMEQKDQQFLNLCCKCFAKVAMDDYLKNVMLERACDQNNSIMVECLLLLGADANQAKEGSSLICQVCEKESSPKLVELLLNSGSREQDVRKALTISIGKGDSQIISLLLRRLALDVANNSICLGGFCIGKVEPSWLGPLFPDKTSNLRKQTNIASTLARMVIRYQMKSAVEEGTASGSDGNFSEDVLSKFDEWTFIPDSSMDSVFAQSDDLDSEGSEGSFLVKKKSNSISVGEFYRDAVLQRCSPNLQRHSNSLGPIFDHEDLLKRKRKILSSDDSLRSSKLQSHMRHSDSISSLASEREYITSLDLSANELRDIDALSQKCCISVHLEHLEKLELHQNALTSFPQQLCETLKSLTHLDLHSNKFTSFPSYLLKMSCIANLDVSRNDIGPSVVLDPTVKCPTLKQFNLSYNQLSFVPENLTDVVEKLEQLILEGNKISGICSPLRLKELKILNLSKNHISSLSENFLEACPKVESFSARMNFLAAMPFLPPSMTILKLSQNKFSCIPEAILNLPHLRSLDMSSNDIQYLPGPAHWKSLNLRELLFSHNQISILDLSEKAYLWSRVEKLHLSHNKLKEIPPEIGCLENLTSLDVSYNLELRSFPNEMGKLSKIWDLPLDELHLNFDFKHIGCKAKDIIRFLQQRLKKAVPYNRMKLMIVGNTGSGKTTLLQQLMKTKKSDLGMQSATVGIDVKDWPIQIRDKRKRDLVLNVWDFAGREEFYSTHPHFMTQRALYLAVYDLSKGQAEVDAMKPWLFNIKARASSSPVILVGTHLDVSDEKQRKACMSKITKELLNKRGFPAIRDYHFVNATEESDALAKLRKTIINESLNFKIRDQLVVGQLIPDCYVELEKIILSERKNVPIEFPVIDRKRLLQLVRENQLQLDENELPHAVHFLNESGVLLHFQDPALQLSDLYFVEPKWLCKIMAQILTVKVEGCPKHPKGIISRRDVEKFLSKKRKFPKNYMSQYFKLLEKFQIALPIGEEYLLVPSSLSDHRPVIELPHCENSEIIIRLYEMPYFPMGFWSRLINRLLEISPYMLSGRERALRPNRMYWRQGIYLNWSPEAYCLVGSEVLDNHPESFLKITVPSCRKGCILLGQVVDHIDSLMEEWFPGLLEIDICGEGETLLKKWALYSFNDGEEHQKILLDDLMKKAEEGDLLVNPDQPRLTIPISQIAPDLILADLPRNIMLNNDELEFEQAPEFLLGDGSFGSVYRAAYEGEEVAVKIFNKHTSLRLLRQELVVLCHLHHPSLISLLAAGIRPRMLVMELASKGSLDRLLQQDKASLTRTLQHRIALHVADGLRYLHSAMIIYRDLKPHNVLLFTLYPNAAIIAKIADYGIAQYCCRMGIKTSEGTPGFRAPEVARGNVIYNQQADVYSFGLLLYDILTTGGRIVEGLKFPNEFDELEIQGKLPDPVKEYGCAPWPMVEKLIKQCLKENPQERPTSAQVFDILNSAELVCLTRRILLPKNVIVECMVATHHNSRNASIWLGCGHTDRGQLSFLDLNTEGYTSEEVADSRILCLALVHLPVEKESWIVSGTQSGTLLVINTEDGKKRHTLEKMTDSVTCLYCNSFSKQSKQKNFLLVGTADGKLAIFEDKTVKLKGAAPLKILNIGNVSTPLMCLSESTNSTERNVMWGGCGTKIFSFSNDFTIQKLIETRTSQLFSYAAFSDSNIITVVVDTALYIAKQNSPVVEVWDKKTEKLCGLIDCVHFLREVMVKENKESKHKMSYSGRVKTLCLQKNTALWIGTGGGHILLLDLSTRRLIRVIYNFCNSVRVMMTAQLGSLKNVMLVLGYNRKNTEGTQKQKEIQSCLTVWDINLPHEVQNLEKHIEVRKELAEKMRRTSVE
Experimental: as §1

MAP4K3 = biological target: T14, MAP4K3 (Homo sapiens, UniProt Q8IVH8); conditions: read-out: Percent Control
T14 construct: purchased Eurofins Discovery (DiscoverX KINOMEscan scanMAX)
Experimental: as §1

GRK1 = biological target: T15, GRK1 (Homo sapiens, UniProt Q15835); conditions: read-out: Percent Control
T15 construct: purchased Eurofins Discovery (DiscoverX KINOMEscan scanMAX)
Experimental: as §1

HIPK4 = biological target: T16, HIPK4 (Homo sapiens, UniProt Q8NE63); conditions: read-out: Percent Control
T16 construct: purchased Eurofins Discovery (DiscoverX KINOMEscan scanMAX)
Experimental: as §1

[2] = biological target: T17, EGFR(L747-E749del, A750P) (Homo sapiens, UniProt P00533, A750P/DEL747-749); conditions: read-out: Percent Control
T17 construct: purchased Eurofins Discovery (DiscoverX KINOMEscan scanMAX)
Experimental: as §1

CDKL5 = biological target: T18, CDKL5 (Homo sapiens, UniProt O76039); conditions: read-out: Percent Control
T18 construct: purchased Eurofins Discovery (DiscoverX KINOMEscan scanMAX)
Experimental: as §1

[3] = biological target: T19, ABL1(H396P)-phosphorylated (Homo sapiens, UniProt P00519, H396P); conditions: read-out: Percent Control
T19 construct: purchased Eurofins Discovery (DiscoverX KINOMEscan scanMAX)
Experimental: as §1

ULK1 = biological target: T20, ULK1 (Homo sapiens, UniProt O75385); conditions: read-out: Percent Control
T20 construct: purchased Eurofins Discovery (DiscoverX KINOMEscan scanMAX)
Experimental: as §1

CDK4-cyclinD3 = biological target: T21, CDK4-cyclinD3 (Homo sapiens, UniProt P11802); conditions: read-out: Percent Control
T21 construct: purchased Eurofins Discovery (DiscoverX KINOMEscan scanMAX)
Experimental: as §1

IGF1R = biological target: T22, IGF1R (Homo sapiens, UniProt P08069); conditions: read-out: Percent Control
T22 construct: purchased Eurofins Discovery (DiscoverX KINOMEscan scanMAX)
Experimental: as §1

ACVR2A = biological target: T23, ACVR2A (Homo sapiens, UniProt P27037); conditions: read-out: Percent Control
T23 construct: purchased Eurofins Discovery (DiscoverX KINOMEscan scanMAX)
T23 sequence (P27037 20-513): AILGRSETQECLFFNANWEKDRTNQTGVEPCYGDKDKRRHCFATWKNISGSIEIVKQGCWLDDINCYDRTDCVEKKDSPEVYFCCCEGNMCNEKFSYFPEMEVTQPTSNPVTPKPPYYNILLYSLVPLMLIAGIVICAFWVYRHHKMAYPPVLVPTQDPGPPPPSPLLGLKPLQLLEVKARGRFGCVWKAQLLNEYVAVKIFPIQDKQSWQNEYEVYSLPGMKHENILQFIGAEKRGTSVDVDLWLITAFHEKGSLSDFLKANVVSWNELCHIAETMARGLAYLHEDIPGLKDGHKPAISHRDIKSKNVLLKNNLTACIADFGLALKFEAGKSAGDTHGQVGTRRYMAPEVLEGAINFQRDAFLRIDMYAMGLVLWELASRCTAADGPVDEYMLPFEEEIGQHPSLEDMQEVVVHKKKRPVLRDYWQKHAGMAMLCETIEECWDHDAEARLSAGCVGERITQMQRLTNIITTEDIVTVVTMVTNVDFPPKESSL
Experimental: as §1

YANK2 = biological target: T24, YANK2 (Homo sapiens, UniProt Q9NY57); conditions: read-out: Percent Control
T24 construct: purchased Eurofins Discovery (DiscoverX KINOMEscan scanMAX)
T24 sequence (Q9NY57 whole entry): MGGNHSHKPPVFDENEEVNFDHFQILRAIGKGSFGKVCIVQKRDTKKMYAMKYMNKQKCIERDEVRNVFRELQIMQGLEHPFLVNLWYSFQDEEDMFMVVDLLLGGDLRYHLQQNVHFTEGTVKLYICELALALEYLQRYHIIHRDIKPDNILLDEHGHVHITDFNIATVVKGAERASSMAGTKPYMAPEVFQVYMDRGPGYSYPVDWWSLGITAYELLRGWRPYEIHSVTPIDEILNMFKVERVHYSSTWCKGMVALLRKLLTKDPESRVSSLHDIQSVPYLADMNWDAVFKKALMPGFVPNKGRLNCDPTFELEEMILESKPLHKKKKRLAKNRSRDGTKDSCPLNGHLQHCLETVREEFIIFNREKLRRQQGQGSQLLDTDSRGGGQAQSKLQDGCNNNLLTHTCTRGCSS
Experimental: as §1

KIT-autoinhibited = biological target: T25, KIT-autoinhibited (Homo sapiens, UniProt P10721); conditions: read-out: Percent Control
T25 construct: purchased Eurofins Discovery (DiscoverX KINOMEscan scanMAX)
T25 sequence (P10721 26-976): as the sequence (P10721 26-976 L576P) above, with P551L counted along it
Experimental: as §1

DCAMKL2 = biological target: T26, DCAMKL2 (Homo sapiens, UniProt Q8N568); conditions: read-out: Percent Control
T26 construct: purchased Eurofins Discovery (DiscoverX KINOMEscan scanMAX)
Experimental: as §1

FLT3(ITD,D835V) = tested on: FLT3(ITD,D835V)
Experimental: as §1

PRKG2 = biological target: T27, PRKG2 (Homo sapiens, UniProt Q13237); conditions: read-out: Percent Control
T27 construct: purchased Eurofins Discovery (DiscoverX KINOMEscan scanMAX)
Experimental: as §1

SRPK2 = biological target: T28, SRPK2 (Homo sapiens, UniProt P78362); conditions: read-out: Percent Control
T28 construct: purchased Eurofins Discovery (DiscoverX KINOMEscan scanMAX)
Experimental: as §1

MST1 = biological target: T29, MST1 (Homo sapiens, UniProt Q13043); conditions: read-out: Percent Control
T29 construct: purchased Eurofins Discovery (DiscoverX KINOMEscan scanMAX)
Experimental: as §1

CSNK1G3 = biological target: T30, CSNK1G3 (Homo sapiens, UniProt Q9Y6M4); conditions: read-out: Percent Control
T30 construct: purchased Eurofins Discovery (DiscoverX KINOMEscan scanMAX)
Experimental: as §1

PHKG2 = biological target: T31, PHKG2 (Homo sapiens, UniProt P15735); conditions: read-out: Percent Control
T31 construct: purchased Eurofins Discovery (DiscoverX KINOMEscan scanMAX)
Experimental: as §1

RAF1 = biological target: T32, RAF1 (Homo sapiens, UniProt P04049); conditions: read-out: Percent Control
T32 construct: purchased Eurofins Discovery (DiscoverX KINOMEscan scanMAX)
Experimental: as §1

ROS1 = biological target: T33, ROS1 (Homo sapiens, UniProt P08922); conditions: read-out: Percent Control
T33 construct: purchased Eurofins Discovery (DiscoverX KINOMEscan scanMAX)
Experimental: as §1

Cc1cc(Nc2ccc(F)c(CC3(C(=O)N4CCC(F)(CN5CCN(c6ccc(N7CCC(=O)NC7=O)cn6)CC5)CC4)CCN(Cc4cccc(Cl)c4F)CC3)n2)n[nH]1 [SK5527] gave a remaining binding at 0.1 µM (BRK; 100 nM) of 92%, a remaining binding at 1 µM (BRK; 1000 nM) of 88% and a remaining binding at 0.1 µM (SNARK; 100 nM) of 86%. The remaining binding at 1 µM (SNARK; 1000 nM) was 76%, the remaining binding at 0.1 µM (AAK1; 100 nM) was 100% and the remaining binding at 1 µM (AAK1; 1000 nM) was 92%. The remaining binding at 0.1 µM (FGR; 100 nM) was 89%, the remaining binding at 1 µM (FGR; 1000 nM) was 61% and the remaining binding at 0.1 µM (KIT(L576P); 100 nM) was 100%. The remaining binding at 1 µM (KIT(L576P); 1000 nM) was 100%, the remaining binding at 0.1 µM (NIK; 100 nM) was 100% and the remaining binding at 1 µM (NIK; 1000 nM) was 88%. For the same compound, the remaining binding at 0.1 µM (SRPK1; 100 nM) was 93%, the remaining binding at 1 µM (SRPK1; 1000 nM) was 100% and the remaining binding at 0.1 µM (PIK3CD; 100 nM) was 69%. For the same compound, the remaining binding at 1 µM (PIK3CD; 1000 nM) was 87%, the remaining binding at 0.1 µM (p38-alpha; 100 nM) was 100% and the remaining binding at 1 µM (p38-alpha; 1000 nM) was 100%. It also gave a remaining binding at 0.1 µM ([1]; 100 nM) of 82%, a remaining binding at 1 µM ([1]; 1000 nM) of 93% and a remaining binding at 0.1 µM (ULK2; 100 nM) of 89%. For the same compound, the remaining binding at 1 µM (ULK2; 1000 nM) was 78%, the remaining binding at 0.1 µM (CLK2; 100 nM) was 88% and the remaining binding at 1 µM (CLK2; 1000 nM) was 93%. For the same compound, the remaining binding at 0.1 µM (LRRK2; 100 nM) was 100%, the remaining binding at 1 µM (LRRK2; 1000 nM) was 94% and the remaining binding at 0.1 µM (MAP4K3; 100 nM) was 82%. It also gave a remaining binding at 1 µM (MAP4K3; 1000 nM) of 72%, a remaining binding at 0.1 µM (GRK1; 100 nM) of 100% and a remaining binding at 1 µM (GRK1; 1000 nM) of 85%. It also gave a remaining binding at 0.1 µM (HIPK4; 100 nM) of 85%, a remaining binding at 1 µM (HIPK4; 1000 nM) of 81% and a remaining binding at 0.1 µM ([2]; 100 nM) of 100%. For the same compound, the remaining binding at 1 µM ([2]; 1000 nM) was 97%, the remaining binding at 0.1 µM (CDKL5; 100 nM) was 94% and the remaining binding at 1 µM (CDKL5; 1000 nM) was 81%. For the same compound, the remaining binding at 0.1 µM ([3]; 100 nM) was 88%, the remaining binding at 1 µM ([3]; 1000 nM) was 70% and the remaining binding at 0.1 µM (ULK1; 100 nM) was 92%. For the same compound, the remaining binding at 1 µM (ULK1; 1000 nM) was 91%, the remaining binding at 0.1 µM (CDK4-cyclinD3; 100 nM) was 100% and the remaining binding at 1 µM (CDK4-cyclinD3; 1000 nM) was 100%. For the same compound, the remaining binding at 0.1 µM (IGF1R; 100 nM) was 87%, the remaining binding at 1 µM (IGF1R; 1000 nM) was 89% and the remaining binding at 0.1 µM (ACVR2A; 100 nM) was 100%. The remaining binding at 1 µM (ACVR2A; 1000 nM) was 98%, the remaining binding at 0.1 µM (YANK2; 100 nM) was 100% and the remaining binding at 1 µM (YANK2; 1000 nM) was 100%. It also gave a remaining binding at 0.1 µM (KIT-autoinhibited; 100 nM) of 94%, a remaining binding at 1 µM (KIT-autoinhibited; 1000 nM) of 84% and a remaining binding at 0.1 µM (DCAMKL2; 100 nM) of 93%. For the same compound, the remaining binding at 1 µM (DCAMKL2; 1000 nM) was 91%, the “Percent Control” value (FLT3(ITD,D835V); 100 nM) was 79% and the “Percent Control” value (FLT3(ITD,D835V); 1000 nM) was 59%. It also gave a remaining binding at 0.1 µM (PRKG2; 100 nM) of 86%, a remaining binding at 1 µM (PRKG2; 1000 nM) of 78% and a remaining binding at 0.1 µM (SRPK2; 100 nM) of 93%. The remaining binding at 1 µM (SRPK2; 1000 nM) was 79%, the remaining binding at 0.1 µM (MST1; 100 nM) was 100% and the remaining binding at 1 µM (MST1; 1000 nM) was 100%. It also gave a remaining binding at 0.1 µM (CSNK1G3; 100 nM) of 100%, a remaining binding at 1 µM (CSNK1G3; 1000 nM) of 92% and a remaining binding at 0.1 µM (PHKG2; 100 nM) of 95%. It also gave a remaining binding at 1 µM (PHKG2; 1000 nM) of 97%, a remaining binding at 0.1 µM (RAF1; 100 nM) of 100% and a remaining binding at 1 µM (RAF1; 1000 nM) of 100%. The remaining binding at 0.1 µM (ROS1; 100 nM) was 61% and the remaining binding at 1 µM (ROS1; 1000 nM) was 16%.
